Read-outs that look alike come from different tables or passages of the source. Some results are limits rather than exact numbers.

For one data set, the system named is U87MG cells. The experiment in a line: Cell proliferation/viability assay (CCK8 kit; text says MTT), U87MG. It counts as cell-based. To be noted: Homo sapiens, U-87 MG, single agent, FIG. 2B/2C, read-out: IC50 values (alone). From the text:
(§1) Four GBM cell lines U87, U87R, A172, and A172R were used in this study. The American Type Culture Collection (ATCC; Manassas, Va., USA) provided human GBM cell lines U87-MG (ATCC HTB-14; GBM of unknown origin) and A172 (ATCC CRL-1620; ATCC). U87R and A172R cells were obtained from Dr. Tsung-I Hsu and Dr. Jian-Ying Chung (The Ph.D. Program for Neural Regenerative Medicine, College of Medical Science and Technology, Taipei Medical University, Taipei, Taiwan). These cells were maintained in Dulbecco's modified Eagle medium (DMEM) with 10% fetal bovine serum (FBS) and 50 μM TMZ for at least 60 days. TMZ resistance in U87R and A172R cells was confirmed using the colony formation assay (FIG. 11). Cells were cultured in DMEM supplemented with 10% FBS, 100 U/mL penicillin, […] streptomycin (all from Gibco; Thermo Fisher Scientific, Waltham, Mass., USA) and maintained in a humidified incubator at 37° C. and 5% CO2. NBM-BMX (BMX), (E)-2-(4-Methoxybenzyloxy)-3-prenyl-4-methoxy-N-hydroxycinamide, was provided by NatureWise Biotech & Medicals Corporation (Taipei, Taiwan).
(§2) We plated 3000 GBM cells per well in 96-well plates and allowed them to adhere overnight. […] Following treatment, the absorption value was measured using a CCK8 kit (Targetmol, Shanghai, China) at the indicated time points. […]
Background: Tetrazolium assays rely on reduction of a dye to a coloured formazan, in cell work by metabolically active cells.

For data set [1] the following is noted: statement from literature; cited from earlier work.
The next data set relates to A172 cells. The data set can be described thus: Cell proliferation/viability assay (CCK8 kit; text says MTT), A172. In kind it is cell-based. To be noted: Homo sapiens, A 172, single agent, FIG. 2B/2C, read-out: IC50 values (alone).
Description: as §1, §2

The subject of another data set is HCT116 cells. The experiment in a line: CRC cell proliferation assay (CCK8), HCT116. In kind it is cell-based. The conditions noted are these: Homo sapiens. The procedure:
(§3) Three CRC cell lines HT29, HCT116 and RKO were used in this study. The American Type Culture Collection (ATCC; Manassas, Va., USA) provided human CRC cell lines HT29 (ATCC HTB-38; mutant TP53, p.R273H; APC frame shift, p. E1554fs; wild type β-catenin), HCT116 (ATCC CCL-247; wild type TP53; wild type APC; deletion β-catenin, p. S45del) and RKO (ATCC CRL-2577; wild type TP53; wild type APC; wild type β-catenin). Three CRC cells lines as listed above were cultured in adherent culture condition, maintained at 37° C. inside the cell incubation containing 5% CO2. The two cell lines of HCT-116 and HT-29 cells were cultured in McCoy's 5A medium with supplemented 10% fetal bovine serum (Gibco; Thermo Fischer Scientific, Grand Island, N.Y., USA)), 1% penicillin and 1% streptomycin. RKO cell was cultured in MEM medium with supplemented 10% FBS, 1% penicillin, 1% streptomycin and 1% sodium pyruvate. The cell cultures were passaged by trypsinization every three days. BM-BMX (BMX), (E)-2-(4-Methoxybenzyloxy)-3-prenyl-4-methoxy-N-hydroxycinamide, was provided by Nature Wise Biotech & Medicals Corporation (Taipei, Taiwan).
(§4) We plated 4000 CRC cells per well in 96-well plates and allowed them to adhere overnight. To validate cell line responsiveness to BMX and TMZ monotherapy, the cells were treated with different doses of BMX or TMZ for 24, 48, and 72 hrs. To confirm cell responsiveness to the BMX-TMZ combination, cells were either treated with different doses of TMZ ([…]) with or without BMX (5 μM) for 24, 48, and 72 hrs or with different doses of BMX (0-10 μM) with or without TMZ (50 μM) for 24, 48, and 72 hrs. Following treatment, the absorption value was measured using a CCK8 kit (Targetmol, Shanghai, China) at the indicated time points. The results are reported as the mean±standard deviation of at least three replicates.

The subject of a further data set is U87MG-R cells. The data set can be described thus: Cell proliferation/viability assay (CCK8 kit; text says MTT), U87MG-R. To be noted: Homo sapiens; U87MG-R cells (TMZ-resistant); single agent; FIG. 2B/2C; read-out: IC50 values (alone). In kind it is cell-based.
Description: as §1, §2

In a further data set the test system is A172-R cells. The data set can be described thus: Cell proliferation/viability assay (CCK8 kit; text says MTT), A172-R. It counts as cell-based. The conditions noted are these: Homo sapiens; A172-R cells (TMZ-resistant); single agent; FIG. 2B/2C; read-out: IC50 values (alone).
Description: as §1, §2

A further data set concerns MGMT. The experiment in a line: Western blot of MGMT in GBM-R cells. It counts as cell-based, human. The conditions noted are these: A172-R and U87MG-R cells; 50 μM TMZ without or with 5 and 10 μM BMX; 48 hrs; FIG. 5B, 5C. On the procedure: The cells were collected and lysed in RIPA lysis buffer (EMD Millipore Billerica, Mass., USA, 10×RIPA buffer) containing a protease inhibitor. Protein concentration was determined using a protein assay kit (Bio-Rad Laboratories, Hercules, Calif., USA). The SDS loading buffer was mixed with the protein samples. Proteins (20 μg/lane) were separated using 8%-12% SDS-PAGE and transferred to a PVDF membrane, which was blocked with 5% bovine serum albumin at room temperature for 1 hr in tris-buffered saline (TBS)-Tween 20 (0.5%; TBS-T), incubated with primary antibodies overnight at […], and then incubated with horseradish peroxidase (HRP)-conjugated secondary antibodies at room temperature for 1 hr. After washing thoroughly with TBS-T, the HRP signals were detected with a chemical HRP substrate. Signal of each target protein was visualized by incubation with an enhanced chemiluminescent reagent and exposure to X-ray film.

The subject of a further data set is RKO cells. The experiment in a line: CRC cell proliferation assay (CCK8), RKO. In kind it is cell-based. To be noted: Homo sapiens. On the procedure:
as §3, §4

Broadly, the IC50 is the midpoint of a concentration-inhibition curve. Take `COc1ccc(COc2c(/C=C/C(=O)NO)ccc(OC)c2CC=C(C)C)cc1` [BMX, (E)-2-(4-Methoxybenzyloxy)-3-prenyl-4-methoxy-N-hydroxycinamide]: the IC50 with U87MG cells is 29.8 ± 2.32 µM; in the data set on A172 cells it was 21 ± 2.34 µM; in the data set with HCT116 cells (HCT-116, 24 h, BMX alone, 24 hrs, read-out: IC50 of BMX) it was 24.8 ± 2.5 µM; with HCT116 cells (HCT-116, 24 h, TMZ 50 μM combined with different concentrations of BMX, 24 hrs, read-out: IC50 of BMZ) it was over 10 µM; in the data set on HCT116 cells (HCT-116, 48 h, BMX alone, 48 hrs, read-out: IC50 of BMX) it was 7.7 ± 0.3 µM; with HCT116 cells (HCT-116, 48 h, TMZ 50 μM combined with different concentrations of BMX, 48 hrs, read-out: IC50 of BMZ) it was 3.2 ± 0.3 µM. For the same molecule, the IC50 with HCT116 cells (HCT-116, 72 h, BMX alone, 72 hrs, read-out: IC50 of BMX) is 1.5 ± 0.3 µM; with HCT116 cells (HCT-116, 72 h, TMZ 50 μM combined with different concentrations of BMX, 72 hrs, read-out: IC50 of BMZ), 0.9 ± 0.1 µM; in the data set with U87MG-R cells, over 68.1 µM; in the data set with A172-R cells, over 52.6 µM; in the data set on RKO cells (24 h, BMX alone, 24 hrs, read-out: IC50 of BMX) it was 38.5 ± 3.5 µM; with RKO cells (24 h, TMZ 50 μM combined with different concentrations of BMX, 24 hrs, read-out: IC50 of BMZ), over 10 µM. Also, the IC50 is 7.2 ± 0.6 µM in the data set with RKO cells (48 h, BMX alone, 48 hrs, read-out: IC50 of BMX); 3.6 ± 0.4 µM in the data set on RKO cells (48 h, TMZ 50 μM combined with different concentrations of BMX, 48 hrs, read-out: IC50 of BMZ); 1.5 ± 0.2 µM in the data set with RKO cells (72 h, BMX alone, 72 hrs, read-out: IC50 of BMX); 0.9 ± 0.1 µM with RKO cells (72 h, TMZ 50 μM combined with different concentrations of BMX, 72 hrs, read-out: IC50 of BMZ). Further, the blood-brain barrier penetration entry in data set [1] is on record as “ability to cross the blood-brain barrier”. The MGMT expression entry in the data set on MGMT is given as “moderately decrease MGMT levels”.
In the case of `Cn1nnc2c(C(N)=O)ncn2c1=O` [TMZ, Temozolomide, reference compound], the IC50 in the data set with U87MG cells was 81 ± 1.68 µM; in the data set on A172 cells it was 73.5 ± 3.65 µM; in the data set with HCT116 cells (HCT-116, 24 h, BMX 5 μM combined with different doses of TMZ, 24 hrs, read-out: IC50 of TMZ), over 400 µM; in the data set on HCT116 cells (HCT-116, 24 h, TMZ alone, 24 hrs, read-out: IC50 of TMZ), over 1000 µM; in the data set on HCT116 cells (HCT-116, 48 h, BMX 5 μM combined with different doses of TMZ, 48 hrs, read-out: IC50 of TMZ), 41.6 ± 2.4 µM; in the data set on HCT116 cells (HCT-116, 48 h, TMZ alone, 48 hrs, read-out: IC50 of TMZ), 515 ± 21.6 µM. Also, the IC50 was 192 ± 14.7 µM in the data set on HCT116 cells (HCT-116, 72 h, TMZ alone, 72 hrs, read-out: IC50 of TMZ); 303 ± 15.2 µM with U87MG-R cells; 595 ± 23.4 µM in the data set with A172-R cells; over 400 µM in the data set on RKO cells (24 h, BMX 5 μM combined with different doses of TMZ, 24 hrs, read-out: IC50 of TMZ); over 1000 µM with RKO cells (24 h, TMZ alone, 24 hrs, read-out: IC50 of TMZ); 21.9 ± 2.7 µM with RKO cells (48 h, BMX 5 μM combined with different doses of TMZ, 48 hrs, read-out: IC50 of TMZ). Also, the IC50 with RKO cells (48 h, TMZ alone, 48 hrs, read-out: IC50 of TMZ) is 992 ± 52.4 µM; in the data set with RKO cells (72 h, TMZ alone, 72 hrs, read-out: IC50 of TMZ) it was 380 ± 40.3 µM. Also, the blood-brain barrier penetration result in data set [1] is recorded as “good penetration of the blood-brain barrier”. Moreover, the MGMT expression entry in the data set with MGMT is recorded as “moderately suppress MGMT expression”.

These data come from patent US11980594B2, “Composition and method for treating a drug-resistant cancer” (NOVELWISE PHARMACEUTICAL CORPORATION, priority 2021, dated 2024).
